Biological target: T1, α-Lac (α-lactalbumin) (Bos taurus, UniProt P00711)
T1 construct: gene LALBA; native mature protein from bovine milk, type III, calcium depleted (apo form, EDTA buffer); signal peptide absent
T1 sequence (P00711 20-142): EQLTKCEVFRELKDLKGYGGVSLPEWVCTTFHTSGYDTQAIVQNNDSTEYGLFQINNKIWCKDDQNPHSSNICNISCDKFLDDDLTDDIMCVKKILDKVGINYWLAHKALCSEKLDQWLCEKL
Experiment: isothermal titration calorimetry
Type: binding
Details: 20 mM Tris pH 7, 25 °C, 3.5 mM EDTA (apo form), unreliable (authors urge care: no clear pre- or post-transition, heat does not level off)
Description: isothermal titration calorimetry on α-Lac (α-lactalbumin)

K (M^-1) (up to 3% ethanol, n = 1.8)	K (M^-1) (n = 0.9)	SMILES
(14 ± 4.82) × 10^3 M^-1	–	CC(=O)O[C@H]1C(=O)[C@@]2(C)[C@H]([C@H](OC(=O)c3ccccc3)[C@]3(O)C[C@H](OC(=O)[C@H](O)[C@@H](NC(=O)c4ccccc4)c4ccccc4)C(C)=C1C3(C)C)[C@]1(OC(C)=O)CO[C@@H]1C[C@@H]2O [PTX, paclitaxel]
–	(6.7 ± 1.61) × 10^3 M^-1	COc1cccc2c1C(=O)c1c(O)c3c(c(O)c1C2=O)C[C@@](O)(C(=O)CO)C[C@@H]3O[C@H]1C[C@H](N)[C@H](O)[C@H](C)O1 [DOX, doxorubicin]
